According to ChEMBL document CHEMBL1147491, “Complestatin synthetic studies; the effect of the amino acid configuration on peptide backbone conformation in the common western BCD macrocycle” (Bioorg Med Chem Lett, 2004):
pIC50: −log10 of the molar value.

How the values were obtained:
Design in all cases: species or system Homo sapiens
[1] = Compound required to inhibit binding of CD4 to gp120 in the presence of bovine serum albumin(BSA)
[2] = Compound required to inhibit binding of CD4 to gp120 in the absence of bovine serum albumin(BSA)
[3] = Compound required to inhibit binding of CD4 to gp120 at 100 uM concentration; No inhibition

| pIC50 [1] | pIC50 [2] | SMILES | IC50 [3] |
| --- | --- | --- | --- |
| 5.70 | 4.49 | CN1C(=O)[C@@H](c2cc(Cl)c(O)c(Cl)c2)NC(=O)[C@@H]2NC(=O)[C@@H](c3cc(Cl)c(O)c(Cl)c3)NC(=O)[C@H](NC(=O)C(=O)c3cc(Cl)c(O)c(Cl)c3)Cc3c[nH]c4c(cccc34)-c3cc2cc(c3O)Oc2ccc(cc2)C[C@H]1C(=O)N[C@@H](C(=O)O)c1ccc(O)cc1 [CHLOROPEPTIN] | – |
| – | – | CN[C@H](CC(C)C)C(=O)N[C@H]1C(=O)N[C@@H](CC(N)=O)C(=O)N[C@H]2C(=O)N[C@H]3C(=O)N[C@H](C(=O)N[C@H](C(=O)O)c4cc(O)cc(O)c4-c4cc3ccc4O)[C@H](O)c3ccc(c(Cl)c3)Oc3cc2cc(c3O[C@@H]2O[C@H](CO)[C@@H](O)[C@H](O)[C@H]2O[C@H]2C[C@](C)(N)[C@H](O)[C@H](C)O2)Oc2ccc(cc2Cl)[C@H]1O [VANCOMYCIN] | No inhibition |
